Legend:
[1] = tested on: rats; assay: Standard "open field" test (50 percent decrease in the number of diameter crossings vs untreated controls); assay type: in vivo; details: Rattus norvegicus, po, read-out: ED50 (dosage which caused a 50 percent decrease in the number of diameter crossings)
From the text: The dosage which caused a 50 percent decrease (in comparison to the untreated controls) in the number of diameter crossings is expressed as the ED50.

[2] = Toxicity (mouse), p.o.; details: in vivo, po

SMILES	ED50 [1] [mg/kg]	LD50 [2] [mg/kg]
CCC(=O)Nc1ccc(OCCN2CC=C(c3ccc(F)cc3)CC2)cc1 [4'-[2-[4-(p-fluoro-phenyl)-3,6-dihydro-1(2H)-pyridyl)-ethoxy]-propionanilide]	0.6	150 to 300
CC(=O)Nc1ccc(OCCN2CC=C(c3ccc(F)cc3)CC2)cc1 [4'-{2-[4-(p-fluorophenyl)-3,6-dihydro-1(2H)-pyridyl]ethoxy}acetanilide]	0.6	250 to 500
Nc1ccc(OCCN2CC=C(c3ccc(F)cc3)CC2)cc1 [p-[2-[4-(p-fluoro-phenyl)-3,6-dihydro-1(2H)-pyridyl]-ethoxy]-aniline]	0.6	250 to 500
